Entries after “also recorded” stand apart in the source; their conditions may differ. Read-outs that look alike come from different tables or passages of the source.

Data set [1] can be described thus: Dynamic/gravimetric vapour sorption (DVS/GVS) hygroscopicity. It is filed as physicochemical. As to conditions: for hygroscopicity (in words): DVS/GVS at 25° C. Here is the method:
Analyses were performed on an SMS DVS Advantage instrument. A few mg of the substance was added into an Al pan and exposed to stepwise RH changes according to 0-90-20% in steps of 10% RH, using open loop mode. The experiments were performed using a gas flow rate of 200 mL/min and at 25° C. The dm/dt criteria applied was 0.001 weight-%/min during a 5-minute window, with a maximum allowed time of 150 minutes and a minimum allowed time of 50 minutes for all steps except for the step at 0% RH, which had no criteria but was set to 6 h.
The hygroscopicity of Form A (as obtained from the synthesis described in Example 1), Form B (as obtained from a slurry in methanol/water 4:1) and Form C (as obtained from a slurry in ethanol) were investigated using GVS at 25° C. […] Form A can thus be classified as non-hygroscopic.
With a weight gain of about 3% at elevated humidities, it appears that a hydrate form is formed. Upon drying, Form B returned to the anhydrate; see FIGS. 12A and 12B, respectively.
Form C is thus classified as non-hygroscopic.

Data set [2] is described as follows: Thermogravimetric analysis (TGA) weight loss. The following applies: heating up to 175° C. It is filed as physicochemical. Here is the method: Analyses were performed on a PerkinElmer TGA8000 instrument. A few mg of sample was gently charged into open Pt-pans and analysed by weight in a flow of dry nitrogen gas (40 mL/min), to ensure an inert atmosphere. The sample was scanned from 25 to 200° C. using a continuous scan speed of 10° C./min.
This confirms that Form A is an anhydrate.

The conditions of data set [3]: cited from earlier work.
A further data set deals with intragastric acidity. As to conditions: cited from earlier work.
The conditions of data set [4]: cited from earlier work. The source holds these as a separate data set.
Another data set is described as follows: clinical. As to conditions: human, in vivo. Here is the method:
Linaprazan glurate is a prodrug of linaprazan, which was disclosed in WO 99/55706 and previously studied in Phase I and II studies. […] A clinical Phase I study has shown that administration of a single dose of linaprazan glurate can maintain the intragastric acidity above pH 4 for 24 hours. Linaprazan glurate is therefore tailored for patients with severe erosive gastroesophageal reflux disease (eGERD).
Whereas the plasma concentration of linaprazan glurate is only very low and difficult to determine, the plasma concentration of linaprazan may be determined instead. […] It is estimated that this requires a minimal plasma concentration (Cmin) of linaprazan of at least about 240 nmol/L after 22 hours. At such doses, a once daily oral administration of the formulation would be sufficient. In some embodiments, therefore, a single unit dose of a pharmaceutical composition of linaprazan glurate provides a Cmin of linaprazan in a human of at least about 240 nmol/L after 22 hours following oral administration of the pharmaceutical composition to said human. In other embodiments, a daily administration of two unit doses of a pharmaceutical composition of linaprazan glurate provides a Cmin of linaprazan in a human of at least about 240 nmol/L after 10 hours following oral administration of the last unit dose of the pharmaceutical composition to said human.

In the next data set the test system is gastric acid. The following applies: Phase I and II studies; cited from earlier work.
Setting [5] is: GVS at 25° C., humidity range of 0-90%.

Consider `Br.Cc1cccc(C)c1CNc1cc(C(=O)NCCOC(=O)CCCC(=O)O)cn2c(C)c(C)nc12` [Form A], for which the water uptake entry in data set [1] (DVS, at 80% RH) is on record as “about 0.15%”; in data set [1] (setting [5]), around 0.22%. In addition, in data set [1], the “hygroscopicity (in words)” value was “non-hygroscopic; also recorded: very low hygroscopicity”. For the same compound, in data set [2], the weight loss stood at 0.3%.
`Cc1cccc(C)c1CNc1cc(C(=O)NCCOC(=O)CCCC(=O)O)cn2c(C)c(C)nc12` [Form A of the free base]: the figures for the solubility in water result in data set [3] (pH 1) and in data set [3] (pH 6.8) were “slightly soluble” and “practically insoluble”, respectively.
In the case of `Cc1cccc(C)c1CNc1cc(C(=O)NCCOC(=O)CCCC(=O)O)cn2c(C)c(C)nc12` [linaprazan glurate, 5-{2-[({8-[(2,6-dimethylbenzyl)amino]-2,3-dimethylimidazo[1,2-a]pyridine-6-yl}carbonyl)-amino]ethoxy}-5-oxopentanoic acid], the “control of gastric acid production” value in the data set with intragastric acidity (compared to linaprazan) was “total control of the gastric acid production for a longer time”. Besides, the “time intragastric acidity maintained above pH 4” value in the data set with intragastric acidity (single dose, Phase I) is recorded as 24 hours. Further, the plasma concentration result in data set [4] (after absorption) is recorded as “only very low”. Besides, in data set [4] (compared to linaprazan), the “half-life in the body” value is “longer half-life”. Moreover, the “metabolism after absorption into the blood stream” value in data set [4] (in vivo) is on record as “quickly metabolized into linaprazan”.
In the case of `Br.Cc1cccc(C)c1CNc1cc(C(=O)NCCOC(=O)CCCC(=O)O)cn2c(C)c(C)nc12` [Form B], the “hygroscopicity (in words)” value in data set [1] was “significant water uptake with increasing humidity”. Besides, the weight gain result in data set [1] (GVS at 25° C., elevated humidities) was “about 3%”. This compound registered a weight loss in data set [2] of 0.3%.
With `Cc1cccc(C)c1CNc1cc(C(=O)NCCO)cn2c(C)c(C)nc12` [linaprazan], in the data set “clinical”, the concentration at 22 h was at least 240 nM. Besides, in the data set with gastric acid, the “duration of acid inhibition” value is listed as “too short duration”, the “elimination from the body” value is “quickly eliminated from the body”, the onset of action result is “fast onset of action” and the tolerability result is listed as “well tolerated”.
Regarding `Br.Cc1cccc(C)c1CNc1cc(C(=O)NCCOC(=O)CCCC(=O)O)cn2c(C)c(C)nc12` [Form C], the water content entry in data set [1] (DVS, at 90% RH) is given as “not more than 0.05%”. Besides, the “hygroscopicity (in words)” value in data set [1] is on record as “non-hygroscopic; also recorded: very low”. In addition, the water uptake result in data set [1] (setting [5]) was “about 0.05%”. In data set [2], this compound came in with a weight loss of 0.2%.

These data come from patent publication US20260217705A1, “POLYMORPHS OF THE HYDROBROMIDE SALT OF LINAPRAZAN GLURATE” (CINCLUS PHARMA HOLDING AB (PUBL), priority 2023, published 2026).
